Data on three compounds can be found in patent US20020157138A1, “Transformation and regeneration of sunflower cotyledons” (priority 2001, published 2002).

One data set concerns SFB193 and SFB216. Nature of the data set: Glyphosate spray of plants from R2 seeds at V4 and V8 stages. The note with it: 32 and 64 oz/acre; V4 and V8 stages of plant development. Type of data set: in vivo, sunflower. On the procedure:
Transgenic R1 sunflower plants (from strain HA300B), transformed with pWRG4750, were transformed and regenerated as described in Examples 5-9 and tested in greenhouse. About 5000 R2 seeds of two independent transformants, SFB193 and SFB216, were planted. Some plants were sprayed with Glyphosate at V-4 and V-8 leaf stages at 0 and 32 oz/acre level. For the other plants, glyphosate treatment rates, at V4 stage were 0-, 32-, or 64 oz./acre. The sunflower plants were assessed for resistance to glyphosate.

For the next data set, the system named is SFB193. The experiment in a line: Glyphosate spray in greenhouse, transgenic sunflower. Type of data set: in vivo. On the procedure: (§1) Transgenic R1 sunflower plants (from strain HA300B), transformed with pWRG4750, were transformed and regenerated as described in Examples 5-9 and tested in greenhouse. About 5000 R2 seeds of two independent transformants, SFB193 and SFB216, were planted. […] […] The sunflower plants were assessed for resistance to glyphosate.
(§2) In addition, the glyphosate-treated transgenic plants were scored for normal head development.

The next data set relates to SFB216. The data set is described as above. In kind it is in vivo. The protocol:
Transgenic R1 sunflower plants (from strain HA300B), transformed with pWRG4750, were transformed and regenerated as described in Examples 5-9 and tested in greenhouse. About 5000 R2 seeds of two independent transformants, SFB193 and SFB216, were planted. Some plants were sprayed with Glyphosate at V-4 and V-8 leaf stages at 0 and 32 oz/acre level. […] The sunflower plants were assessed for resistance to glyphosate.
as §2

Another data set deals with HA300B (Control). The experiment in a line: Glyphosate spray in greenhouse, non-transgenic control. Type of data set: in vivo, sunflower. The following applies: for Tolerance to glyphosate spray: greenhouse, about v6 to v10 leaf stage. On the procedure:
as §1, §2

A further data set relates to sunflower cotyledons. Nature of the data set: Assessment of selection agents (GUS assay of transformed cotyledons and shoots). In kind it is cell-based, Helianthus annuus L. The following applies: glyphosate 0.05->0.1->0.05 mM, paromomycin 25->50->25 mg/L, kanamycin 50 mg/L; for GUS Positive/Total cotyledons assayed: destructive GUS assays at different stages. The protocol:
After the post-transformation delay, the transformed cotyledons were transferred through a series of selection cultures containing low-high-low concentrations of selective agent. The cotyledons were first placed in Selection media (see Table 1) containing 0.05 mM glyphosate for about 10 days. Plates were incubated at 23° C., low light, and 18/6 hour photoperiod. The cotyledons were then transferred to a second selection culture containing Selection media +0.1 mM glyphosate for about 2 additional weeks. Finally, the cotyledons were placed in a third selection culture containing Selection media +0.05 mM glyphosate for about 7 to 14 days. In addition to glyphosate, several other selection agents were tested (Table 4).

Turning to `O=C(O)CNCP(=O)(O)O` [Glyphosate], the “Vegetative tolerance to glyphosate spray” value with SFB193 and SFB216 is “excellent vegetative tolerance”. The “Normal Sunflower Heads After Treatment With Glyphosate” value in the data set with SFB193 (32 oz./acre) is 56%; in the data set on SFB193 (64 oz./acre), 79%; in the data set on SFB193 (96 oz./acre), 50%; with SFB193 (128 oz./acre), 25%; in the data set with SFB216 (32 oz./acre), 70%; with SFB216 (64 oz./acre), 32%. In addition, the “Normal Sunflower Heads After Treatment With Glyphosate” value in the data set with SFB216 (96 oz./acre) is listed as 14%; in the data set on SFB216 (128 oz./acre), 0%; in the data set with HA300B (Control) (32 oz./acre), 0%; with HA300B (Control) (64 oz./acre), 0%; in the data set with HA300B (Control) (96 oz./acre), 0%; in the data set with HA300B (Control) (128 oz./acre) it was 0%. For the same compound, the “Tolerance to glyphosate spray” value in the data set with HA300B (Control) (32 oz./acre) and in the data set with HA300B (Control) (64 oz./acre) was “No Tolerance” each time. Also, the “GUS Positive/Total cotyledons assayed” value in the data set on sunflower cotyledons was 63/80. Further, in the data set on sunflower cotyledons, the “GUS Positive Shoots” value is recorded as 7.

Regarding `NC[C@H]1O[C@H](O[C@H]2[C@H](O)[C@@H](O[C@H]3O[C@H](CO)[C@@H](O)[C@H](N)[C@H]3O)[C@H](N)C[C@@H]2N)[C@H](O)[C@@H](O)[C@@H]1O` [Kanamycin], in the data set with sunflower cotyledons, the “GUS Positive/Total cotyledons assayed” value is listed as 59/64 and the “GUS Positive Shoots” value is 16.

Consider `NC[C@@H]1O[C@H](O[C@H]2[C@@H](O)[C@H](O[C@@H]3[C@@H](O)[C@H](N)C[C@H](N)[C@H]3O[C@H]3O[C@H](CO)[C@@H](O)[C@H](O)[C@H]3N)O[C@@H]2CO)[C@H](N)[C@@H](O)[C@@H]1O` [Paromomycin], for which, in the data set with sunflower cotyledons, the “GUS Positive/Total cotyledons assayed” value is 15/30 and the “GUS Positive Shoots” value was 7.
